“And” between values parts separate entries of the source, which are not always exact repeats. Equal values may be shown once. Read-outs that look alike come from different tables or passages of the source.
How the values were obtained:
P. aeruginosa PA 107092 [1] = assay: Time-kill assay; format: cell-based, Pseudomonas aeruginosa; settings: monotherapy, 8 μg/mL
Method: To study the time-dependent killing effects of the drug combinations, the time-kill kinetics were assessed. The time-kill assay was performed following the 8 μM (2 μg/mL) concentration of avibactam used in the checkerboard assay. […] This concentration also corresponds to the susceptibility breakpoint of both β-lactams.
For the preparation of the bacterial solution, an overnight grown culture was diluted in 0.85% saline solution and adjusted to 0.5 McFarland turbidity. […] The culture tubes were incubated at 37 °C, shaking at 250 rpm. At the appointed time intervals, a 100-μL aliquot was taken from each tube, serially diluted in phosphate-buffered saline (PBS) and plated on LB agar plates. The plates were incubated at 37 °C, and bacterial colonies were counted after 18 h. The bactericidal or bacteriostatic activity is determined based on the decrease in CFU over the time period. Bactericidal activity corresponds to ≥3 log10 reduction in CFU/mL, while bacteriostatic activity corresponds to <3 log10 reduction in CFU/mL.

E. coli 107115 = assay: microbe, parasite or virus in culture; format: cell-based, Escherichia coli; settings: Escherichia coli, 107115, agent alone, one value per checkerboard plate
Method: (§1) The adjuvant properties of the guanidinylated polymyxins were evaluated using the checkerboard assay as previously described. The bacterial solution was prepared as described in the antimicrobial susceptibility assay. The antibiotic of interest and the adjuvant were serially diluted two-fold along the x- and y-axis on a 96-well plate, respectively, resulting in varying concentrations of both agents in each well. Equal volumes of bacterial solution were added to the designated wells. The well consisting of bacterial solution served as the positive control, while the wells containing only media served as the negative control. The plate was then incubated at 37 °C for 18 h. After incubation, an Emax Plus microplate reader (Molecular Devices, Union City, CA, USA) was used to measure the OD at a wavelength of 590 nm to confirm the turbidity. The fractional inhibitory concentration (FIC) index was then determined to establish the relationship between the antibiotic and adjuvant. The FIC index corresponds to the sum of the FICs of the antibiotic and adjuvant. The FIC of each agent is calculated by dividing its MIC when it is used in combination by its MIC when used alone. FIC indices ≤0.5, 0.5 < x ≤ 4 and >4 indicate synergy, additivity and antagonism, respectively.

P. aeruginosa 101243 = assay: Checkerboard assay; format: cell-based, Pseudomonas aeruginosa; settings: one value per checkerboard plate; for MIC: Pseudomonas aeruginosa, 101243, agent alone
Method: as §1

[2] = system: P. aeruginosa P262-101856; assay: Checkerboard assay; format: cell-based, Pseudomonas aeruginosa; settings: one value per checkerboard plate; for MIC: Pseudomonas aeruginosa, P262101856, agent alone
Method: as §1

P. aeruginosa P259-96918 = assay: Checkerboard assay; format: cell-based, Pseudomonas aeruginosa; settings: Pseudomonas aeruginosa, P25996918; agent alone, one value per checkerboard plate
Method: as §1

[3] = system: P. aeruginosa P264-104354; assay: Checkerboard assay; format: cell-based, Pseudomonas aeruginosa; settings: one value per checkerboard plate
Method: as §1

P. aeruginosa PAO1 = assay: microbe, parasite or virus in culture; format: cell-based, Pseudomonas aeruginosa
Method: as §1

P. aeruginosa 114228 = assay: microbe, parasite or virus in culture; format: cell-based, Pseudomonas aeruginosa; settings: one value per checkerboard plate; for MIC: Pseudomonas aeruginosa, 114228, agent alone
Method: as §1

P. aeruginosa PA 88949 = format: cell-based, Pseudomonas aeruginosa; settings: one value per checkerboard plate
Method: as §1

P. aeruginosa PA 107092 [4] = format: cell-based, Pseudomonas aeruginosa
Method: as §1

P. aeruginosa PA 109084 = format: cell-based, Pseudomonas aeruginosa
Method: as §1

P. aeruginosa PA 86052 = format: cell-based, Pseudomonas aeruginosa; settings: one value per checkerboard plate
Method: as §1

E. coli ATCC 25922 = assay: microbe, parasite or virus in culture; format: cell-based, Escherichia coli; parameters: key to FIC index antibiotic + GCol / FIC index antibiotic + GPMB: sum of FICs; ≤0.5 synergy, 0.5–4 additivity, >4 antagonism; settings: for MIC: Escherichia coli, ATCC25922, 18 h, agent alone, one value per checkerboard plate, read-out: MIC alone
Method: as §1

A. baumannii AB027 = assay: microbe, parasite or virus in culture; format: cell-based, Acinetobacter baumannii; settings: one value per checkerboard plate; for MIC: Acinetobacter baumannii, AB027, agent alone
Method: as §1

A. baumannii 92247 = assay: microbe, parasite or virus in culture; format: cell-based, Acinetobacter baumannii; settings: one value per checkerboard plate; for MIC: Acinetobacter baumannii, 92247, agent alone
Method: as §1

A. baumannii ATCC 17978 = assay: microbe, parasite or virus in culture; format: cell-based, Acinetobacter baumannii; settings: for MIC: Acinetobacter baumannii, ATCC17978, 18 h, agent alone, one value per checkerboard plate, read-out: MIC alone
Method: as §1

A. baumannii AB031 = assay: Checkerboard assay; format: cell-based, Acinetobacter baumannii; settings: Acinetobacter baumannii, AB031, agent alone, one value per checkerboard plate
Method: as §1

E. coli 94393 = assay: Checkerboard assay; format: cell-based, Escherichia coli; settings: Escherichia coli, 94393, agent alone, one value per checkerboard plate
Method: as §1

E. coli 94474 = assay: Checkerboard assay; format: cell-based, Escherichia coli; settings: Escherichia coli, 94474, agent alone, one value per checkerboard plate
Method: as §1

K. pneumoniae 113254 = assay: Checkerboard assay; format: cell-based, Klebsiella pneumoniae; settings: Klebsiella pneumoniae, 113254, agent alone, one value per checkerboard plate
Method: as §1

K. pneumoniae 113250 = assay: Checkerboard assay; format: cell-based, Klebsiella pneumoniae; settings: one value per checkerboard plate
Method: as §1

A. baumannii 110193 = assay: microbe, parasite or virus in culture; format: cell-based, Acinetobacter baumannii; settings: one value per checkerboard plate
Method: as §1

E. cloacae 121187 = assay: microbe, parasite or virus in culture; format: cell-based, Enterobacter cloacae; settings: one value per checkerboard plate
Method: as §1

[5] = one value per checkerboard plate

SMILES: C[C@H]1[C@H](NC(=O)/C(=N\OC(C)(C)C(=O)O)c2csc(N)n2)C(=O)N1S(=O)(=O)O [Aztreonam]
- log10 increase (bacterial growth) over 24 h (P. aeruginosa PA 107092 [1]): 2 to 3 log10
- MIC (E. coli 107115): 1020 µg/mL
- MIC (P. aeruginosa 101243): 16 µg/mL
- MIC alone (P. aeruginosa 101243; agent alone): 32 µg/mL
- MIC [2]: 32 µg/mL
- MIC alone ([2]; agent alone): 64 µg/mL
- MIC (P. aeruginosa P259-96918): 32 µg/mL
- MIC ([3]; Pseudomonas aeruginosa, P264104354, agent alone): 64 µg/mL
- MIC alone ([3]; agent alone): 32 µg/mL
- Absolute MIC of antibiotic at 4 μg/mL GCol (P. aeruginosa PAO1): 0.5 µg/mL
- Absolute MIC of antibiotic at 4 μg/mL GPMB (P. aeruginosa PAO1): 0.25 µg/mL
- MIC (P. aeruginosa PAO1; Pseudomonas aeruginosa, PAO1, 18 h, agent alone, one value per checkerboard plate, read-out: MIC alone): 4 µg/mL
- MIC (P. aeruginosa 114228): 16 µg/mL
- MIC alone (P. aeruginosa 114228; agent alone): 8 µg/mL
- MIC antibiotic alone (P. aeruginosa PA 88949): 16 µg/mL
- MIC antibiotic alone (P. aeruginosa PA 107092 [4]; [5]): 32 µg/mL and 64 µg/mL
- MIC antibiotic alone (P. aeruginosa PA 107092 [4]; plates with 8 μM avibactam): 16 µg/mL and 8 µg/mL
- MIC antibiotic alone (P. aeruginosa PA 109084; [5]): 64 µg/mL
- MIC antibiotic alone (P. aeruginosa PA 109084; plates with 8 μM avibactam): 8 µg/mL
- MIC antibiotic alone (P. aeruginosa PA 86052): 64 µg/mL and 32 µg/mL
- Absolute MIC of antibiotic at 2 μg/mL GCol (E. coli ATCC 25922): 0.031 µg/mL
- Absolute MIC of antibiotic at 2 μg/mL GPMB (E. coli ATCC 25922): 0.016 µg/mL
- FIC index antibiotic + GCol (E. coli ATCC 25922): 0.188
- MIC (E. coli ATCC 25922): 0.25 µg/mL
- MIC (A. baumannii AB027): 1020 µg/mL
- MIC (A. baumannii 92247): 128 µg/mL
- MIC alone (A. baumannii 92247; agent alone): 256 µg/mL
- Absolute MIC of antibiotic at 2 μg/mL GCol (A. baumannii ATCC 17978): 64 µg/mL
- Absolute MIC of antibiotic at 2 μg/mL GPMB (A. baumannii ATCC 17978): 32 µg/mL
- MIC (A. baumannii ATCC 17978): 64 µg/mL
- MIC (A. baumannii AB031): 64 µg/mL

SMILES: CC[C@H]1OC(=O)[C@H](C)[C@@H](O[C@H]2C[C@@](C)(OC)[C@@H](O)[C@H](C)O2)[C@H](C)[C@@H](O[C@@H]2O[C@H](C)C[C@H](N(C)C)[C@H]2O)[C@](C)(O)C[C@@H](C)C(=O)[C@H](C)[C@@H](O)[C@]1(C)O [Erythromycin]
- MIC (E. coli 107115): 2050 µg/mL
- MIC (E. coli 94393): 64 µg/mL
- MIC (E. coli 94474): 64 µg/mL
- MIC (P. aeruginosa 101243): 1020 µg/mL
- MIC [2]: 2050 µg/mL
- Absolute MIC of antibiotic at 4 μg/mL GCol (P. aeruginosa PAO1): 16 µg/mL
- Absolute MIC of antibiotic at 4 μg/mL GPMB (P. aeruginosa PAO1): 2 µg/mL
- MIC (P. aeruginosa 114228): 64 µg/mL
- Absolute MIC of antibiotic at 2 μg/mL GCol (E. coli ATCC 25922): 0.25 µg/mL
- MIC (E. coli ATCC 25922): 32 µg/mL
- MIC (K. pneumoniae 113254): 64 µg/mL
- MIC (K. pneumoniae 113250; Klebsiella pneumoniae, 113250, agent alone): 32 µg/mL
- MIC alone (K. pneumoniae 113250; agent alone): 64 µg/mL
- MIC (A. baumannii 110193; Acinetobacter baumannii, 110193, agent alone): 2 µg/mL
- MIC alone (A. baumannii 110193; agent alone): 4 µg/mL
- MIC (A. baumannii AB027): 8 µg/mL
- MIC alone (A. baumannii AB027; agent alone): 4 µg/mL
- MIC (A. baumannii 92247): 8 µg/mL
- Absolute MIC of antibiotic at 2 μg/mL GCol (A. baumannii ATCC 17978): 32 µg/mL
- Absolute MIC of antibiotic at 2 μg/mL GPMB (A. baumannii ATCC 17978): 0.5 µg/mL
- MIC (A. baumannii ATCC 17978): 32 µg/mL
- MIC (E. cloacae 121187; Enterobacter cloacae, 121187, agent alone): 1020 µg/mL
- MIC alone (E. cloacae 121187; agent alone): 512 µg/mL
- MIC (A. baumannii AB031): 16 µg/mL

Source: PMC9598282 (Antibiotics, 2022)
